We go through two compounds from patent US7449195B2 (priority 2001, dated 2008).

This test relates to Phytophthora infestans. The class given is in vivo. The note with it: individual active compound, tomato leaves, protective, evaluated after 6 days.

Like-named read-outs stand apart in the source and are kept apart here.

With `Cc1ccc(C(C)NC(=O)[C@@H](NC(=O)OC(C)C)C(C)C)cc1` (stereo partly drawn) [II-3, iprovalicarb], the “Efficacy in % of the untreated control” value runs as follows: (0.05 ppm in the spray liquor) 29%; (0.1 ppm in the spray liquor) 53%; (0.2 ppm in the spray liquor) 70%.
For `Cc1ccc(-c2c(Cl)nc(C#N)n2S(=O)(=O)N(C)C)cc1` [Ia, cyazofamid] the same measures were 53%, 70% and 82%.
